Experimental data taken from patent US20140363379A1, “NUTRITIONAL APPROACH TO THE USE OF ERGOTHIONEINE AND VITAMIN D2 FOR HAIR, NAIL AND SKIN GROWTH” (ENTIA BIOSCIENCES, INC., priority 2011, published 2014).

Experiments:
[1] = humans, after mushroom consumption (0 g, 8 g, 16 g doses); cited from earlier work
glutathione = experiment: Glutathione levels in plasma, cortex and midbrain of Parkinson's model mice, by glutathione assay; assay type: in vivo, mouse; settings: compared with knockout mice
Method: Matched cohorts of SNCA transgenic mouse model of PD were used to measure the therapeutic efficacy of ErgoD2™ to control movement disorder, improve grip strength, and lower alpha-synuclein in the cortex and/or midbrain of the PD animals. Additionally, alpha-synuclein was measured in the plasma, and glutathione was measured in the plasma, cortex and midbrain. IL-6 measurements and an immunohistochemistry study will also be performed on intestinal tissues to see if there are pathologic variances in intestinal function between cohorts, which could be associated with disease onset and progression.
Concentrations of glutathione present in midbrain homogenates (nM), as measured by glutathione assay.
Concentrations of glutathione present in cortex homogenates (nM), as measured by glutathione assay. Error bars represent±standard error. Glutathione is a major protective antioxidant in animal cells. It is present most abundantly in its reduced form (GSH) in healthy cells. The levels of GSH and glutathione disulfide (GSSG), the oxidized form, are used as indicators of oxidative stress and overall cell health. One of the well-established markers of PD is a decrease in glutathione levels in the substantia nigra (SN). This decrease is specific to the SN and is not observed in other sections of the PD brain.

insulin resistance = settings: cited from earlier work

## C[N+](C)(C)[C@@H](Cc1c[nH]c(=S)[nH]1)C(=O)[O-] [L-Ergothioneine]
[1]
  time of peak of ET in red blood cells (RBC): 2 h

## CC(=O)N[C@@H](CS)C(=O)O [NAC, n-acetyl cysteine]
glutathione
  cortex glutathione concentration, treated transgenic versus knockout mice: no significant differences

## vitamin D
Insulin resistance; bringing 25(OH)D levels above 80 nmol/L
  improvement of insulin resistance: 12%
Insulin resistance; increasing vitamin D levels from 25 to 75 nmol/L
  improvement in insulin sensitivity: 60%
